Laboratory results published in the CheMixHub viscosity set.
“And” between values parts separate entries of the source, which are not always exact repeats. Identical values can stand only once.

Brc1ccc2[n-]cnc2c1.CCCCCCCCCCCCCC[P+](CCCCCC)(CCCCCC)CCCCCC
100 kPa
Conditions | viscosity [mPa·s]
293.15 K | 1910
298.15 K | 1270
303.15 K | 872
308.15 K | 613
313.15 K | 441
318.15 K | 325
323.15 K | 246

C1CCOC1
Conditions | viscosity
293.15 K, 101.33 kPa | 0.48 mPa·s
298 K, 101 kPa | 0.4608 mPa·s
298 K, 101.33 kPa | 0.461 mPa·s
298.15 K, 101.33 kPa | 0.53 mPa·s and 0.481 mPa·s and 0.472 mPa·s
303 K, 101 kPa | 0.42 mPa·s and 0.42 mPa·s
303 K, 101.3 kPa | 0.422 mPa·s
303.15 K, 101.32 kPa | 0.449 mPa·s
303.15 K, 101.33 kPa | 0.4496 mPa·s and 0.45 mPa·s and 0.45 mPa·s
308 K, 101.33 kPa | 0.42 mPa·s
313 K, 101 kPa | 0.39 mPa·s and 0.39 mPa·s
313 K, 101.3 kPa | 0.402 mPa·s
313.15 K, 100 kPa | 0.39 mPa·s
313.15 K, 101.33 kPa | 0.4066 mPa·s
323.15 K, 101.33 kPa | 0.3696 mPa·s

CC(C)=O
Conditions | viscosity
293.15 K, 100 kPa | 0.3276 mPa·s and 0.3276 mPa·s
293.15 K, 101.32 kPa | 0.318 mPa·s
293.15 K, 101.33 kPa | 0.337 mPa·s and 0.321 mPa·s
293.16 K, 101 kPa | 0.326 mPa·s
293.2 K, 101 kPa | 0.323 mPa·s
294.15 K, 101 kPa | 0.362 mPa·s
296 K, 101.3 kPa | 0.311 mPa·s
298.15 K, 100 kPa | 0.3186 mPa·s and 0.3186 mPa·s
298.15 K, 101.3 kPa | 0.316 mPa·s
298.15 K, 101.33 kPa | 0.3013 mPa·s and 0.3049 mPa·s and 0.307 mPa·s
298.16 K, 101 kPa | 0.316 mPa·s
302.4 K, 101 kPa | 0.5915 mPa·s
302.95 K, 101 kPa | 0.295 mPa·s
303.05 K, 101 kPa | 0.335 mPa·s
303.15 K, 100 kPa | 0.3091 mPa·s and 0.3091 mPa·s and 0.303 mPa·s
303.15 K, 101.33 kPa | 0.295 mPa·s and 0.298 mPa·s and 0.339 mPa·s
303.16 K, 101 kPa | 0.295 mPa·s
303.95 K, 101 kPa | 0.3366 mPa·s
307.35 K, 101.33 kPa | 0.29 mPa·s
308.15 K, 100 kPa | 0.2992 mPa·s and 0.2992 mPa·s
311.35 K, 101 kPa | 0.3166 mPa·s
313.15 K, 100 kPa | 0.289 mPa·s and 0.289 mPa·s and 0.276 mPa·s
313.15 K, 101.33 kPa | 0.3089 mPa·s
313.25 K, 101 kPa | 0.27 mPa·s
318.15 K, 100 kPa | 0.2784 mPa·s and 0.2784 mPa·s
318.15 K, 101 kPa | 0.279 mPa·s and 0.2649 mPa·s
318.15 K, 101.32 kPa | 0.2496 mPa·s
322.95 K, 101 kPa | 0.248 mPa·s
323.15 K, 100 kPa | 0.2673 mPa·s and 0.2673 mPa·s and 0.255 mPa·s
323.15 K, 101.33 kPa | 0.2871 mPa·s

CC(C)CC(=O)O
101.33 kPa
Conditions | viscosity [mPa·s]
293.15 K | 2.411
313.15 K | 1.672

CC(C)C[P+](C)(CC(C)C)CC(C)C.Cc1ccc(S(=O)(=O)[O-])cc1
Conditions | viscosity [mPa·s]
293.15 K, 101 kPa | 1320

CC1COC(=O)O1 (stereo not given)
viscosity
Conditions | 293.15 K | 298.15 K | 303.15 K | 308.15 K | 313.15 K | 318.15 K | 323.15 K
99.7 kPa | – | – | 2.212 mPa·s | – | 1.998 mPa·s | – | 1.766 mPa·s
100 kPa | – | 2.53 mPa·s | – | – | – | – | –
101 kPa | 2.938 mPa·s and 2.738 mPa·s and 2.72 mPa·s | 2.531 mPa·s and 2.468 mPa·s and 2.51 mPa·s | 2.24 mPa·s and 2.3 mPa·s and 2.29 mPa·s | – | – | 1.654 mPa·s and 1.724 mPa·s and 1.85 mPa·s | 1.538 mPa·s and 1.595 mPa·s
101.3 kPa | 2.746 mPa·s and 2.763 mPa·s and 2.762 mPa·s | – | 2.246 mPa·s and 2.3 mPa·s and 2.149 mPa·s | 2.049 mPa·s and 2.046 mPa·s | 1.879 mPa·s and 1.902 mPa·s | 1.73 mPa·s and 1.755 mPa·s and 1.703 mPa·s | 1.6 mPa·s
101.33 kPa | 2.721 mPa·s | – | 2.237 mPa·s | – | 1.863 mPa·s | – | –

CCCC(=O)[O-].OCC[NH2+]CCO
101.3 kPa
Conditions | viscosity [mPa·s]
293.15 K | 1832
298.15 K | 1226
303.15 K | 839.8
308.15 K | 588.7
313.15 K | 421.1
318.15 K | 307.1
323.15 K | 227.9

CCCCn1cc[n+](C)c1.O=S(=O)([O-])C(F)(F)F
viscosity
Conditions | 293.15 K | 298.15 K | 303.15 K | 308.15 K | 313.15 K | 318.15 K | 323.15 K
100 kPa | 90.81 mPa·s and 102 mPa·s | 76.01 mPa·s and 87.96 mPa·s and 80.1 mPa·s | 63.6 mPa·s and 64.02 mPa·s | 56.43 mPa·s and 52.18 mPa·s | 42.11 mPa·s and 42.76 mPa·s | 38.31 mPa·s and 35.66 mPa·s | 30.02 mPa·s and 30.01 mPa·s
101 kPa | – | 59.8 mPa·s | – | – | – | – | 29.55 mPa·s

CCCc1ccccc1
Conditions | viscosity [mPa·s]
303.15 K, 101 kPa | 0.7591
303.15 K, 101.3 kPa | 0.75
308.15 K, 101.33 kPa | 0.7001
313.15 K, 102 kPa | 0.649
323.15 K, 102 kPa | 0.573

CCOCCn1cc[n+](C)c1.C[C@@H](O)[C@H](N)C(=O)[O-]
100 kPa
Conditions | viscosity [mPa·s]
298.15 K | 1133
303.15 K | 730.3
308.15 K | 438.8
313.15 K | 312.5
318.15 K | 206.8
323.15 K | 153.8

CCOCCn1cc[n+](CCC#N)c1.O=S(=O)([N-]S(=O)(=O)C(F)(F)F)C(F)(F)F
101.33 kPa
Conditions | viscosity [mPa·s]
293.15 K | 401.1
303.15 K | 235.6
313.15 K | 146.2
323.15 K | 105

COc1ccccc1
Conditions | viscosity
293.15 K, 101.33 kPa | 1.05 mPa·s and 1.143 mPa·s
298.15 K, 101 kPa | 0.9912 mPa·s and 1 mPa·s and 0.9785 mPa·s
298.15 K, 101.3 kPa | 0.99 mPa·s and 0.991 mPa·s
303 K, 100 kPa | 0.9804 mPa·s
303 K, 101 kPa | 0.9804 mPa·s
303 K, 101.3 kPa | 0.981 mPa·s
303.15 K, 100 kPa | 0.923 mPa·s
303.15 K, 101.3 kPa | 0.916 mPa·s and 0.915 mPa·s and 0.923 mPa·s
308.15 K, 101 kPa | 0.856 mPa·s and 0.856 mPa·s and 0.8422 mPa·s
313 K, 100 kPa | 0.7623 mPa·s
313 K, 101 kPa | 0.7623 mPa·s
313.15 K, 100 kPa | 0.764 mPa·s
318.15 K, 101 kPa | 0.745 mPa·s and 0.745 mPa·s
318.15 K, 101.33 kPa | 0.739 mPa·s
323 K, 100 kPa | 0.6146 mPa·s
323 K, 101 kPa | 0.6146 mPa·s
323.15 K, 101 kPa | 0.692 mPa·s and 0.692 mPa·s and 0.72 mPa·s
323.15 K, 101.33 kPa | 0.691 mPa·s and 0.691 mPa·s and 0.69 mPa·s

C[N+](C)(C)CCO.O=S(=O)([N-]S(=O)(=O)C(F)(F)F)C(F)(F)F
101 kPa
Conditions | viscosity [mPa·s]
298.15 K | 144.8
313.15 K | 56.44
318.15 K | 46.77
323.15 K | 39.28

Cc1ccccc1
Conditions | viscosity
293.15 K, 100 kPa | 0.598 mPa·s
293.15 K, 101.2 kPa | 0.6003 mPa·s
293.15 K, 101.32 kPa | 0.5859 mPa·s
293.15 K, 101.33 kPa | 0.592 mPa·s
295.85 K, 101.33 kPa | 0.5984 mPa·s
298 K, 101.33 kPa | 0.546 mPa·s
298.15 K, 100 kPa | 0.551 mPa·s
298.15 K, 101.33 kPa | 0.506 mPa·s
302.4 K, 101 kPa | 0.9538 mPa·s
303 K, 100 kPa | 0.5268 mPa·s
303 K, 101.33 kPa | 0.514 mPa·s and 0.515 mPa·s
303.15 K, 100 kPa | 0.539 mPa·s
303.15 K, 101.2 kPa | 0.5357 mPa·s
303.15 K, 101.3 kPa | 0.5272 mPa·s
305.45 K, 101.33 kPa | 0.5375 mPa·s
308 K, 100 kPa | 0.4984 mPa·s
308.15 K, 100 kPa | 0.498 mPa·s
308.15 K, 101.2 kPa | 0.5069 mPa·s
308.15 K, 101.3 kPa | 0.492 mPa·s and 0.4981 mPa·s and 0.503 mPa·s
308.5 K, 101 kPa | 0.512 mPa·s
312.65 K, 101.33 kPa | 0.4982 mPa·s
313 K, 100 kPa | 0.4811 mPa·s
313 K, 101.33 kPa | 0.463 mPa·s and 0.461 mPa·s
313.15 K, 100 kPa | 0.495 mPa·s
313.15 K, 101 kPa | 0.4601 mPa·s and 0.4804 mPa·s and 0.559 mPa·s
313.15 K, 101.2 kPa | 0.4807 mPa·s
313.15 K, 101.33 kPa | 0.478 mPa·s and 0.478 mPa·s and 0.481 mPa·s
318.15 K, 100 kPa | 0.44 mPa·s
318.15 K, 101.2 kPa | 0.4571 mPa·s
318.15 K, 101.32 kPa | 0.4428 mPa·s
318.15 K, 101.33 kPa | 0.458 mPa·s
322.65 K, 101.33 kPa | 0.45 mPa·s
323 K, 101.33 kPa | 0.413 mPa·s and 0.418 mPa·s
323.15 K, 101 kPa | 0.4435 mPa·s and 0.418 mPa·s and 0.4321 mPa·s

O=C(O)CBr
Conditions | viscosity [mPa·s]
323.15 K, 101 kPa | 3.65
